Reference: US7998940B2, “Aptamers to von Willebrand factor and their use as thrombotic disease therapeutics” (Archemix Corp., priority 2004, dated 2011)
Entries after “also recorded” stand apart in the source; their conditions may differ.

Legend:
platelet function = test: ex vivo PFA-100 platelet function after 0.5 mg/kg IV bolus in cynomolgus macaques; details: 0.5 mg/kg single IV bolus
Procedure: (§1) Following IV administration, blood was collected percutaneously at various time points post-dose for PK and PD analysis. PD effect of ARC1779 on platelet function was determined by PFA-100 assays and effect of ARC1779 on bleeding was measured by CBT time. In addition, plasma samples were analyzed by HPLC for quantitation of ARC1779 levels. PK parameter estimates were determined by 2-compartment analysis.
(§2) C. macaques were dosed at 0.5 mg/kg IV bolus with ARC1779 (SEQ ID NO 320). PFA-100 closure time, BIPA and cutaneous bleeding time (“CBT”) were all measured as a function of time throughout the studies. BIPA and PFA-100 closure times were measured as described in previously in Example 3. Cutaneous bleeding times were measured using standard protocols described as follows.

[1] = cutaneous bleeding time (CBT) in cynomolgus macaques; assay type: in vivo; details: in words
Procedure: as §1, §2
A blood pressure cuff was applied to the biceps region of the forearm to be tested and inflated to maintain a constant pressure of 40 mmHg. Using a Surgicutt® Automated Incision Device (ITC, Edison, N.J.), a longitudinal incision was made over the lateral aspect of the volar surface of the forearm distal to the antecubital crease. A stopwatch was started at the time of incision. […] Bleeding time is determined to within 30 seconds of the time when blood is no longer wicked onto the paper. […]

[2] = test system: intra-arterial thrombosis of carotid arteries; test: cynomolgus macaque electrolytic thrombosis model; assay type: in vivo, cynomolgus monkeys
Procedure: A study was performed to test the efficacy of ARC1779 (SEQ ID NO 320) in inhibiting intra-arterial thrombosis in a well documented non-human primate electrolytic thrombosis model. See, e.g., Rote et al., Stroke, 1994: 25, 1223-1233.
Each animal was anesthetized prior to surgical preparation, intubated and maintained in anesthesia with isoflurane inhalant anesthetic to effect delivered through a volume-regulated respirator. An intravenous catheter was also placed in a peripheral vein for administration of lactated Ringer's solution during the procedure.
A catheter was placed in the femoral artery of each animal for continuous monitoring of arterial blood pressure. Similarly a catheter was placed in the femoral vein for blood sample collection. Each carotid artery was instrumented with a Doppler flow probe connected to a flow meter. The flow probes were placed around the artery at a point proximal to the insertion of the intra-arterial electrode and stenosis. The stenosis was placed around each carotid artery so that the […] was reduced by approximately 50% to 60% without altering the mean […]. Blood flow in the carotid arteries was monitored and recorded continuously throughout the observation periods.
Electrolytic injury to the intimal surface of each carotid artery was accomplished via placement of an intravascular electrode. Each electrode was connected to the positive pole of a constant current device and cathode connected to a distant subcutaneous site. Continuous current was delivered to each vessel for a period of 3 hours or for 30 minutes after complete occlusion, whichever was shorter.
Once the electrodes were placed on the right carotid artery (“RCA”) the animal was administered the test article as indicated in Table 32 above. Approximately 15 minutes after test article administration, the electrical current was applied at 100 μA. Blood samples and CBT measurements were collected at the time points specified in Blood Sample Collection Schedule as indicated in FIG. 31. The current was terminated ˜30 minutes after the blood flow signal remained stable at zero flow (which indicates an occlusive thrombus had been formed at the site) or after 180 minutes of electrical stimulation. Approximately 195 minutes after the test article was administered, the left carotid artery (“LCA”) had electrical current administered in a similar fashion as previously described for the RCA. After termination of all surgical procedures and sample collection each animal was euthanized.
An additional 10 cynomolgus monkeys (2.5 to 3.5 kg) were divided into treatment groups 5 to 7 and were treated according the regimen indicated in Table 33 below.
The animal procedure for each treatment group in Table 33 was conducted as reported for the animals in Example 5B.

Substance: PEG20K-NH2-mGmCmGmUdGdCdAmGmUmGmCmCmUmUmCmGmGmCdCmG-s-TmGdCdGdGTmGmCdCmUdCdCmGmUdCmAmCmGmC-3T [ARC1779]
- plasma concentration at which platelet function returned to normal (PFA-100) (platelet function): approximately 77 nM
- effect on cutaneous bleeding time ([1]; 0.5 mg/kg single IV bolus, 0.5 mg/kg): minimal effect; also recorded: very little increase
- cutaneous bleeding time in the electrolytic thrombosis model ([1]; FIG. 34, various doses and time points): at some doses and/or time points in this animal model prolonged CBT was observed, while at other doses and time points CBT was not prolonged
- thrombus formation ([2]; in words, sequential 180-minute electrical injuries to the carotid arteries): inhibited thrombus formation
- carotid arteries that developed occlusive thrombi ([2]; infusion targeted to constant plasma level of 300 nM): 100%
- carotid arteries that developed occlusive thrombi ([2]; infusion targeted to constant plasma level of 500 nM): 63%
- carotid arteries that developed occlusive thrombi ([2]; infusion targeted to constant plasma level of 750 nM): 25%
- carotid arteries that developed occlusive thrombi ([2]; infusion targeted to constant plasma level of 1000 nM): 0%
